Article PMC11602703 (Frontiers in Pharmacology, 2024)
Values joined by “and” are separate entries in the source; they are usually repeats but may differ in a detail not shown here. Equal values may be shown once. “Also recorded” adds a separate entry of the source. Read-outs that look alike come from different tables or passages of the source. Each block holds one compound with its values, some of them ahead of it.

How the values were obtained:
HCT116 cells [1] = experiment: Cell cycle analysis by flow cytometry (PI), HCT116; type: cell-based, human; details: for sub-G0/G1, HCT116 cells, plus SAINT-Protein: 72 h, transfected with SAINT-Protein; for % of cells G0/G1, HCT116 cells / % of cells G2/M, HCT116 cells / % of cells S, HCT116 cells / % of cells sub G0/G1, HCT116 cells: 72 hr, E7 […], 5FU 5µM, with or without SAINT-Protein
Procedure: (§1) A slight opalescence indicates optimal mixing of the components. […] All experiments were conducted in duplicate. […] Quantitative measurements of the cell cycle phase distribution were performed by flow cytometry. Cells were then suspended in 0.5 mL of hypotonic fluorochrome solution (50 μg/mL PI, 0.1% sodium citrate, 0.1% Triton X-100). […] The percentages of nuclei in the different phases of the cell cycle (G0/G1, S and G2/M) were calculated using a DNA cell cycle analysis software (Cell-Fit, Becton Dickinson). A minimum of 10^4 cells was analyzed for each sample.

A2780 cells [2] = experiment: Cell cycle analysis by flow cytometry (PI), A2780; type: cell-based, human; details: 72 hr, Supplementary Figure S1
Procedure: as §1

HT29 cells = experiment: Cell growth, crystal violet assay, HT29; type: cell-based, human; details: for effect of SAINT-Protein transfection on cell survival, HT29: 72 h, Figure 5C
A2780 cells [3] = experiment: Cell growth, crystal violet assay, A2780; details: for IC50: Homo sapiens, A2780, 72 h
[4] = test system: ovarian and colorectal cancer cell lines (A2780, A2780/CP, IGROV-1, HT29, HCT116); experiment: Cell growth, crystal violet assay, statements over several cancer cell lines; type: cell-based, human; details: for IC50: Homo sapiens
recombinant hTS = target: T1, recombinant hTS (Homo sapiens, UniProt P04818); experiment: hTS enzyme inhibition, spectrophotometric assay at 340 nm; type: biochemical; details: for Ki: Ki (text of b40); for IC50: IC50 Recombinant hTS, 100 nM hTS, 50 µM mTHF, 110 µM dUMP, 60 min incubation at 37°C, standard error ±20%
T1 construct: made in house; host or cells: E. coli BL21 (DE3), pQE80L plasmid
T1 sequence (P04818 whole entry): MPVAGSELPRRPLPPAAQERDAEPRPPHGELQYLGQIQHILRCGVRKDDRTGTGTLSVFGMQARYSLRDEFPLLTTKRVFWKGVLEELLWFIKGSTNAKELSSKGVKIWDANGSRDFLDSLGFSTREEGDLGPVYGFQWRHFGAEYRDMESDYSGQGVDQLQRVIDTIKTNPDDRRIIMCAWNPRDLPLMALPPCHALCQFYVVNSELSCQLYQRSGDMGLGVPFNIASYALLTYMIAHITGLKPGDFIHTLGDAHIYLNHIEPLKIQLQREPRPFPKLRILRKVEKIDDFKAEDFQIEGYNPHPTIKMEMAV

A2780/CP cells = experiment: Cell growth, crystal violet assay, A2780/CP; type: cell-based, human
human pancreatic cancer = details: compared with 5-FU; ref Costantino et al., 2022; cited from earlier work
P-gp = details: co-treatment with vincristine; ref Robey et al., 2004; Shafran et al., 2005; cited from earlier work
IGROV-1 cells = experiment: cells; type: cell-based; details: Homo sapiens, IGROV-1, 72 h, read-out: Cellular IC50 values IGROV-1, 72 h-treatment, compound alone
HCT116 cells [5] = experiment: Cell growth, crystal violet assay, HCT116; type: cell-based; details: Homo sapiens, HCT-116, 72 h, read-out: Cellular IC50 values HCT116
[6] = test system: ABC transporters (P-glycoprotein, P-gp) and BCRP; details: in vitro; ref Vaidyanathan et al., 2016; cited from earlier work
[7] = read-out: cancer cell growth inhibition potency (range over cell lines)

SMILES: O=c1[nH]cc(F)c(=O)[nH]1 [Compound 5-FU, 5-fluorouracil, reference compound]
- sub-G0/G1, HCT116 cells, plus SAINT-Protein (HCT116 cells [1]): about 40%
- % of cells G0/G1, HCT116 cells (HCT116 cells [1]): 54.45%
- % of cells G2/M, HCT116 cells (HCT116 cells [1]): 14.75%
- % of cells S, HCT116 cells (HCT116 cells [1]): 12.55%
- % of cells sub G0/G1, HCT116 cells (HCT116 cells [1]): 15.1%
- effect of SAINT-Protein transfection on sub-G0/G1 phase, A2780 cells (A2780 cells [2]): did not benefit from SAINT-Protein transfection

SMILES: CS(=O)(=O)c1ccc2nc(NC(=O)C(Sc3ccc([N+](=O)[O-])cc3)c3ccccc3)sc2c1 (stereo not shown) [Compound E7, phenyl-2-(4-nitrophenylthio)-N-(6-methanesulfonylbenzothiazol-2-yl)acetamide]
- effect of SAINT-Protein transfection on cell survival, HT29 (HT29 cells): more favoured by the presence of SAINT-Protein
- IC50 (A2780 cells [3]; read-out: IC50 A2780 cells, with SAINT-Protein (Figure 4A)): 5.6 µM
- IC50 (A2780 cells [3]; read-out: IC50 A2780 cells, without SAINT-Protein (Figure 4A)): 10.9 µM
- SQ with SAINT-Protein, A2780 cells, 5 μM (A2780 cells [3]; compound 5 μM + SAINT-Protein): 1.10±0.05
- SQ with SAINT-Protein, A2780 cells, 12 μM (A2780 cells [3]; compound 12 μM + SAINT-Protein): 1.07±0.01
- SQ with SAINT-Protein, A2780 cells, 25 μM (A2780 cells [3]; compound 25 μM + SAINT-Protein): 0.90±0.1
- sub-G0/G1, HCT116 cells, plus SAINT-Protein (HCT116 cells [1]): ~60%
- % of cells G0/G1, HCT116 cells (HCT116 cells [1]): 58.15%
- % of cells G2/M, HCT116 cells (HCT116 cells [1]): 11.67%
- % of cells S, HCT116 cells (HCT116 cells [1]): 10.65%
- % of cells sub G0/G1, HCT116 cells (HCT116 cells [1]): 17.53%
- IC50 [4, 7]: 10 to 37 µM
- Ki (recombinant hTS): 7 µM
- effect of SAINT-Protein transfection on sub-G0/G1 phase, A2780 cells (A2780 cells [2]): significantly increased the percentage of cells in the sub-G0/G1 phase
- IC50 (A2780/CP cells; Homo sapiens, A2780C/P, 72 h, read-out: IC50 A2780/CP cells, without SAINT-Protein (Figure 4A)): 15.3 ± 5 µM
- SQ with SAINT-Protein, A2780/CP cells, 5 μM (A2780/CP cells; compound 5 μM + SAINT-Protein): 1.54±0.45
- SQ with SAINT-Protein, A2780/CP cells, 12 μM (A2780/CP cells; compound 12 μM + SAINT-Protein): 1.34±0.1
- SQ with SAINT-Protein, A2780/CP cells, 25 μM (A2780/CP cells; compound 25 μM + SAINT-Protein): 1.15±0.03
- anticancer profile in mouse model (human pancreatic cancer): superior to that of 5-FU

- IC50 (recombinant hTS): 0.8 µM
SMILES: O=c1[nH]c(=O)n([C@H]2C[C@H](O)[C@@H](COP(=O)(O)O)O2)cc1F [FdUMP, 5-fluorodeoxyuridine-5′-monophosphate, reference compound]

SMILES: COc1cc2c(cc1OC)CN(CCc1ccc(NC(=O)c3cc(OC)c(OC)cc3NC(=O)c3cnc4ccccc4c3)cc1)CC2 [Tariquidar, 3-Quinolinecarboxamide, N-[2-[[[4-[2-(3,4-dihydro-6,7-dimethoxy-2(1H)-isoquinolinyl)ethyl]phenyl]amino]carbonyl]-4,5-dimethoxyphenyl]-]
- concentration giving complete reversal of resistance (P-gp): 25 to 80 nM

SMILES: NC(=O)c1ccc(NC(=O)C(Sc2ccc([N+](=O)[O-])cc2)c2ccccc2)cc1 (stereo not shown) [Compound E5, 2-Phenyl-2-(4-nitrophenylthio)-N-(4-carboxamidophenyl)acetamide]
- effect of SAINT-Protein transfection on cell survival, HT29 (HT29 cells): no significant effect
- interaction with elacridar (synergism quotient analysis) ([4]; 200 nM elacridar 2 h pre-treatment, 72 h, A2780, IGROV-1, HT29): synergized by elacridar in all cell lines tested
- effect of SAINT-Protein transfection on cell killing, A2780 and A2780/CP ([4]; A2780 and A2780/CP, 72 h, Figure 5A, B): not significantly enhanced
- IC50 [4, 7]: 25 to 70 µM
- Ki (recombinant hTS): 40 µM
- IC50 (IGROV-1 cells): 69.9 ± 8 µM

SMILES: O=C(CSc1ccc([N+](=O)[O-])cc1)Nc1ccc(C(=O)O)cc1 [Compound E1]
- IC50 (HT29 cells; Homo sapiens, HT-29, 72 h, read-out: Cellular IC50 values HT29): > 100 µM
- cellular activity at 100 µM ([4]; 100 µM, five cancer cell lines of Table 1): no observed cellular activity
- IC50 ([4]; read-out: IC50 with SAINT-Protein, OC cell lines): 20 to 40 µM
- effect of SAINT-Protein transfection on cytotoxic activity, tested cell lines ([4]; with SAINT-Protein versus compound alone): benefits considerably; also recorded: showed cytotoxic activity when associated with the SAINT-Protein
- IC50 (recombinant hTS): 8 µM and 8.2 µM
- IC50 (HCT116 cells [5]): > 100 µM

SMILES: COc1cc2c(cc1OC)CN(CCc1ccc(NC(=O)c3cccc4c(=O)c5cccc(OC)c5[nH]c34)cc1)CC2 [Elacridar, N-[4-[2-(6,7-dimethoxy-3,4-dihydro-1H-isoquinolin-2-yl)ethyl]phenyl]-5-methoxy-9-oxo-10H-acridine-4-carbox amide]
- concentration reversing multidrug resistance [6]: 20 to 100 nM
